Results on 1 molecule are retold here after patent US20190142835A1, “INHIBITION OF AUTOPHAGY USING PHOSPHOLIPASE A2 INHIBITORS” (OREGON HEALTH & SCIENCE UNIVERSITY, priority 2017, published 2019).

SMILES strings stand for the structures.

For experiment [1], the system named is ACHN cells. Put plainly: Lipid droplet staining (Bodipy 493/503), ACHN. It is filed as cell-based, human. The settings on record: 24 hrs; p<0.001 vs control. As to the method: Cells were grown on coverslips then treated with drug for 24 hours. Cells were fixed in 4% paraformaldehyde for 15 min, rinsed with PBS. Cells were washed with a 1% saponin solution for 15 min at room temperature then washed several times in PBS to remove detergent. Cells were then incubated in Bodipy (ThermoFisher #D3922) at a final concentration of 1 uM for 10 min. Bodipy was removed and slides were rinsed with PBS then air dried and mounted on slides using Dako mounting media with Dapi.

The subject of experiment [2] is mouse embryo fibroblasts (MEFs) Atg5+/+. Briefly: Autophagy induction (lipidation of LC3) in Atg5+/+ MEFs. The format is cell-based.
For experiment [3], the system named is PI3K, mTORC1 and mTORC2 signaling. Briefly: Western blotting of PI3K-AKT-mTOR signaling. It is filed as cell-based, human. As to the method:
Cells were plated in 6 well dishes and treated the following day with the indicated agents. Treatments were for 24 hours, after which cells were washed with ice cold PBS and lysed with RIPA buffer (Sigma). Phosphatase inhibitor cocktail set II and protease inhibitor cocktail set III (EMD Millipore) were added at the time of lysis. Lysates were centrifuged at 15,000 g×10 min at 4 degrees C. Protein concentrations were calculated based on a BCA assay (Thermo Scientific) generated standard curve. Proteins were resolved using the NuPAGE Novex Mini Gel system on 4% to 12% Bis-Tris Gels (Invitrogen). For western blotting, equal amounts of cell lysates (15-20 μg of protein) were resolved with SDSPAGE, and transferred to membranes. The membrane was probed with primary antibodies, washed, and then incubated with corresponding fluorescent secondary antibodies and washed. The fluorescent signal was captured using LI-COR (Lincoln, Nebr.) Odyssey Imaging System, and fluorescent intensity was quantified using the Odyssey software where indicated. The following antibodies were used for Western blots: p-S6 (S240/244), S6, LC3B, p-Akt(S473), p-Akt(T308), Akt, cleaved caspase3 (Cell Signaling Technologies). p-Stat3 (Y705), Stat3 and β-actin (AC15) (Abcam). Ki67 (Dako) and cleaved caspase3 (Cell Signaling Technologies) were used for immunohistochemistry. […] BX795 and GDC0941 were purchased from Sigma.

Experiment [4] relates to patient-derived RCC organotypic cultures. Briefly: Patient tumor ex vivo organotypic culture. It is filed as cell-based, human. The note with it: 24 hours. As to the method:
Tumor tissue samples were collected at the time of surgical removal for consented patients and transported in IMEM+FBS+PS. Tissue was sliced into thin sections using a surgical knife. Sections were cultured on an organotypic insert (EMD#PICMORG50) for 24 hours in IMEM+10% FBS+1% PS+50 ug/ml holo-transferrin with drug. A section of each tumor was immediately fixed in 10% buffered formalin to confirm tissue viability. After culture, treated tissue sections were fixed in 10% buffered formalin and embedded in paraffin. Paraffin embedded tumors were evaluated for morphology (H&E) and immunofluorescent signaling.
H&E slides of formalin fixed, paraffin embedded tissue was used to assess morphological integrity of tumor samples. Once integrity was confirmed, immunofluorescent analysis was performed for p-S6 (1:500 CST), p-AKT (1:200 CST) and LC3B (1:250 CST). Four micron sections were cut, de-paraffinized and rehydrated. Antigen retrieval was performed using citrate for 4 min in a pressure cooker. Slides were blocked using 2.5% normal goat serum for 30 min then incubated in primary antibody for 1 hr followed by secondary antibody mouse anti-rabbit alexa 488 (1:1000) for 30 min. Slides were rinsed in PBS, air dried, and coverslipped using Dako mounting media with Dapi.

In experiment [5] the test system is ACHN cells. Put plainly: High content imaging screen of 116 small molecule inhibitors for p62 and pS6. The settings on record: HCI screen, 72 hr. It is filed as cell-based, human. The text has this:
We used a metastatic human RCC cell line, ACHN. Small molecule inhibitors have been extensively used in RCC over the last decade. […] Importantly, p62 is an autophagy substrate that is degraded along with its cargo, and so is expected to decrease with induction of autophagy. Therefore, we monitored p62 steady-state levels as an initial screen of autophagy flux. Next, we combined the measurement of the p62 with a measurement of mTORC1 activity an independent readout to evaluate autophagy. mTORC1 plays the central role in the anabolic process by increasing protein content through ribosomal biogenesis and elongation of protein translation. Specifically, mTORC1 induces mRNA translation by inducing the activation of p70S6 kinase and the subsequent phosphorylation of the S6 ribosomal protein. To ensure increased cellular biomass, mTORC1 downregulates autophagy. We chose the phosphorylation status of the downstream target of mTORC1 signaling, ribosomal S6 (hereafter S6) as a readout for mTORC1 activity.
To provide a straightforward method for detecting the induction of autophagy, we monitored ACHN cells for small molecule inhibitors which decreased the antibody labelled levels of p62 protein and pS6 phosphorylation (see methods below for detailed experiment procedure). To that end, automated high content imaging (HCl) microscopy was used to detect induction of autophagy as documented by the […] by p62 protein expression and mTORC1 inhibition by the decrease in S6 phosphorylation. The HCl assay was optimized for 384-well plate screening. Drug screening plates were designed and created as previously described.
A 7-point dilution series of 116 small molecule inhibitors covering a 1000× concentration range were plated into three, 384-well plates using the EP Motion automated dispensing system. Control wells with equal volumes of DMSO were included as negative controls. ACHN cells were grown, trypsinized counted, and plated directly into warm drug plates using Multidrop combi dispenser. Plates were incubated for 72 hr and subsequently imaged on the Olympus ScanR Platform at 10× magnification performing 4 images per well in 384 well plates. Single-cell nuclear and cytoplasmic fluorescent intensities were calculated using the Olympus ScanR Analysis Software: the DAPI-positive region of each cell was used as a boundary to quantitate nuclei counts for analysis of cell growth and integrated nuclear DNA staining intensity was used for cell cycle analysis. A 10-pixel extension of the nuclear region (and not including the nuclear region) was used to quantitate cytoplasmic signal of immunofluorescent staining of p62 protein and phosphorylation of S6. Mean signal intensity of each marker in all cells per well was used as the metric for cytoplasmic marker expression (average intensity of pS6 and p62). Unsupervised hierarchical clustering was used to identify compounds that produced similar pS6 and p62 dose response phenotypes after treatment.

With `N#CCNC(=O)c1ccc(-c2ccnc(Nc3ccc(N4CCOCC4)cc3)n2)cc1` [CYT387], in experiment [1], the “number of lipid droplets” value was “increase in the number of lipid droplets” and the “size of lipid droplets” value is “increase in the size of lipid droplets”. The “autophagy as seen by the lipidation of LC3” value in experiment [2] is recorded as “induce autophagy in a dose dependent manner”. In experiment [3], the “phosphorylation of ERK 1/2” value was “no effect on the phosphorylation of ERK 1/2”. Moreover, the “AKT T308 phosphorylation (readout for PI3K signaling)” value in experiment [3] (time-dependent) was “increase in AKT T308”. Besides, the “LCB expression and phosphorylated S6 levels” value in experiment [4] is given as “significantly induced LCB expression while simultaneously reducing phosphorylated S6 levels”. For the same molecule, in experiment [5], the S6 phosphorylation entry was “potently inhibited S6 phosphorylation” and the “induction of autophagy / autophagic flux” value was “potent inducers of autophagic flux”.
